Experiment [1] addresses Prostaglandin G/H synthase 1 (Homo sapiens, UniProt P23219). The format is functional.
Experiment [2] addresses T1, 5-hydroxytryptamine receptor 1A (Homo sapiens, UniProt P08908).
T1 sequence (P08908 whole entry): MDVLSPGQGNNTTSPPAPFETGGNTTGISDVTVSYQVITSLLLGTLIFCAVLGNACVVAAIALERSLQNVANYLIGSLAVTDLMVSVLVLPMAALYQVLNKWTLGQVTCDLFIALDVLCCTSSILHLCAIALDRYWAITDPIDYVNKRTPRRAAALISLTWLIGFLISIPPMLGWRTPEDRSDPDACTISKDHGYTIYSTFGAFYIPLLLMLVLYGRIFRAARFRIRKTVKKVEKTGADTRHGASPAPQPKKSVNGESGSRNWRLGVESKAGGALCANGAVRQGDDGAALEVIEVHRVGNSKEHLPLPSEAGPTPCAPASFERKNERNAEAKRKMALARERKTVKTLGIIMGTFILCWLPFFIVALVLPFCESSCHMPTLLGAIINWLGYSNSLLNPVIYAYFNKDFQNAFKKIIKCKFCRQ
The format is functional, cell-based.

Experiment [3] deals with Glutamate receptor ionotropic, NMDA 1 (Rattus norvegicus, UniProt P35439).
Experiment [4] has as its target T2, Alpha-2C adrenergic receptor (Homo sapiens, UniProt P18825).
T2 sequence (P18825 whole entry): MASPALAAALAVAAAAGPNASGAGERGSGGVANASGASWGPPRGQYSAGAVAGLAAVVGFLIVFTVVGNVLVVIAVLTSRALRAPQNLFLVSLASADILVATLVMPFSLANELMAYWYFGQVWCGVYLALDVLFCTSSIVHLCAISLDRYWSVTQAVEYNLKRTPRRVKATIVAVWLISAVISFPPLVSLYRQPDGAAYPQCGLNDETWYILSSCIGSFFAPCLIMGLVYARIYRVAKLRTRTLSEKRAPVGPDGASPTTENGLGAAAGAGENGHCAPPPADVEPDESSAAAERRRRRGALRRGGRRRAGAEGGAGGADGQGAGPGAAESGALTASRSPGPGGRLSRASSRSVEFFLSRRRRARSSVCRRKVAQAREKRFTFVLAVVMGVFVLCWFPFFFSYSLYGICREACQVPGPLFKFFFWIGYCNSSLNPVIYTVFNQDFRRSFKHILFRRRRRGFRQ
The format is functional.

For experiment [5], the target named is Beta-1 adrenergic receptor (Homo sapiens, UniProt P08588). It is filed as functional.
Experiment [6] concerns the target T3, Muscarinic acetylcholine receptor M2 (Homo sapiens, UniProt P08172).
T3 sequence (P08172 whole entry): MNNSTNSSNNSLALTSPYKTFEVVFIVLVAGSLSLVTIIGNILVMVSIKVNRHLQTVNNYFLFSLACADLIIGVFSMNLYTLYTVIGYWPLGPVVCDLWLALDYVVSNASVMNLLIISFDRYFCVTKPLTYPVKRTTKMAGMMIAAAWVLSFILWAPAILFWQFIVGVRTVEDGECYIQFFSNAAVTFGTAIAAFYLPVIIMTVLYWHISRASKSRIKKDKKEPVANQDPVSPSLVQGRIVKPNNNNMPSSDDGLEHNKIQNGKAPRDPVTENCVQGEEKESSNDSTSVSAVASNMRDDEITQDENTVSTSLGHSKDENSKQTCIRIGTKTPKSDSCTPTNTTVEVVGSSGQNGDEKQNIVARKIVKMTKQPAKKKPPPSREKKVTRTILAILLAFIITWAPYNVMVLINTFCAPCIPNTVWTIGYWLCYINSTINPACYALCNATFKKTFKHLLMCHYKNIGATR
The format is functional, cell-based.

The next experiment has as its target Vasopressin V1a receptor (Homo sapiens, UniProt P37288).
Also: assay procedure not described here.

Chain of Vasopressin V1a receptor (P37288 whole entry): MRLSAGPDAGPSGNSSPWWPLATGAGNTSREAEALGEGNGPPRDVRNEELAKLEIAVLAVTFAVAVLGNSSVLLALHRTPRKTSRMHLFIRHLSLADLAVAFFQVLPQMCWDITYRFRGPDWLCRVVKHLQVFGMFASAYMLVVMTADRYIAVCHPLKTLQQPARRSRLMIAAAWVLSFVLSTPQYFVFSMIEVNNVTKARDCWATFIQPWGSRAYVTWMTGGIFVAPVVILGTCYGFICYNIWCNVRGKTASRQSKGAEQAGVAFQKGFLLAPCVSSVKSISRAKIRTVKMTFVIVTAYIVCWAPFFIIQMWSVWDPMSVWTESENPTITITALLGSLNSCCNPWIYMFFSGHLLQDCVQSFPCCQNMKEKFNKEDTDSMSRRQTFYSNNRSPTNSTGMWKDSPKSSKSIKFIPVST
Chain of Beta-1 adrenergic receptor (P08588 whole entry): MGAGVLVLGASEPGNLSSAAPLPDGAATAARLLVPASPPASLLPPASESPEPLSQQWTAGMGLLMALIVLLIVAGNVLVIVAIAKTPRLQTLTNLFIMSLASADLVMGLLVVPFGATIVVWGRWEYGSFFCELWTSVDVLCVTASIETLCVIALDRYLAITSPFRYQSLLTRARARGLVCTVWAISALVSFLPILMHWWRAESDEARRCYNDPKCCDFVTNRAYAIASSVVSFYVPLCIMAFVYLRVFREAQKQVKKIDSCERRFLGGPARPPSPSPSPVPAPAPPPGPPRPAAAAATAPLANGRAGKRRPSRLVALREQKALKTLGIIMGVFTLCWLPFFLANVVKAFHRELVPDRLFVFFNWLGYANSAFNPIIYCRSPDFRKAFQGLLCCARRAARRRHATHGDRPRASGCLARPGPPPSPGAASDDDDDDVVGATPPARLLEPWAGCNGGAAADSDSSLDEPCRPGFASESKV
Chain of Prostaglandin G/H synthase 1 (P23219 whole entry): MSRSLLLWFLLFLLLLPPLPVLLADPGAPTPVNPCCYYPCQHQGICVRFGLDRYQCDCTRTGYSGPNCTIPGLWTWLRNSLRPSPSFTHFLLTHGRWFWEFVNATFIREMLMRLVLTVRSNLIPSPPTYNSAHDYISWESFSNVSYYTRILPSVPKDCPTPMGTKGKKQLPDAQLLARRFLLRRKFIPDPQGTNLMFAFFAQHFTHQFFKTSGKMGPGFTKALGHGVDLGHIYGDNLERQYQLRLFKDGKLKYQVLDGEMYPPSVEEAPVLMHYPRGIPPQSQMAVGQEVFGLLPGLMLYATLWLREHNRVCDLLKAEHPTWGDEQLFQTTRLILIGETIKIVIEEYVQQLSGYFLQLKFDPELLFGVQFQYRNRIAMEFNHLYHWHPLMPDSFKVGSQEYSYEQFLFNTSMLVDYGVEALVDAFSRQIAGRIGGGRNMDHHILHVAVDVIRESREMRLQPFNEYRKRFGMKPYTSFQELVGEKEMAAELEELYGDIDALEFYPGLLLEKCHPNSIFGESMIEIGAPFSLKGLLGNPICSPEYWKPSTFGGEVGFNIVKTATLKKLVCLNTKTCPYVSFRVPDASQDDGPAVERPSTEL

For orientation: AC50 means the concentration at which the activity in the assay is half-maximal. Low readings indicate activity at low concentration, high ones activity only at high concentration. Consider `CN(C)c1ccc(C(=C2C=CC(=[N+](C)C)C=C2)c2ccc(N(C)C)cc2)cc1` [GENTIAN VIOLET], for which the concentration at half-maximal activity (AC50) in experiment [1] is 11.8 µM.
In the case of HYDROXOCOBALAMIN, the concentration at half-maximal activity (AC50) is greater than 30 µM in experiment [2]; greater than 30 µM in experiment [3]; 20 µM in experiment [4]; greater than 30 µM in experiment [5]; greater than 30 µM in experiment [6]; greater than 30 µM on Vasopressin V1a receptor.
